Measured values taken from PMC8124942, “In Vitro and In Vivo Cell Uptake of a Cell-Penetrating Peptide Conjugated with Fluorescent Dyes Having Different Chemical Properties” (Cancers, 2021).

Test: Reverse-phase HPLC retention time as indicator of hydrophilicity/lipophilicity
Assay type: physicochemical
Details: chromatographic, COSMOSIL 5C18-AR-300 (4.6 x 150 mm), eluent A H2O/0.1% TFA, eluent B CH3CN/0.1% TFA, A:B = 80:20 to 20:80 in 25 min, detection 649 nm (Cy5/sulfoCy5) or 545 nm (Cy3/sulfoCy3), used as indicator of hydrophilicity/lipophilicity
From the text: General chemicals were of the best grade available, supplied by FUJIFILM Wako Pure Chemical Corporation (Osaka, Japan), Tokyo Chemical Industries Co., Ltd. (Tokyo, Japan), KANTO CHEMICAL Co., INC. (Tokyo, Japan), and Sigma-Aldrich Co. LLC (St. Louis, MO, USA), and were used without further purification. Cy3/Cy5-SE was purchased from Abcam (Cambridge, UK) and sulfoCy3/sulfoCy5-SE was purchased from AAT Bioquest (Sunnyvale, CA, USA). Peptide A was purchased from GlyTech, Inc. (Kyoto, Japan). MALDI-TOF mass spectra (MS) were measured with an Autoflex III TOF/TOF (Bruker Corporation, Billerica, MA, USA). Purification and high-performance liquid chromatography (HPLC) analyses were performed by HPLC systems (Shimadzu Corporation, Kyoto, Japan) with reverse-phase columns: the COSMOSIL 5C18-AR-300 (4.6 × 150 mm) (NACALAI TESQUE, INC., Kyoto, Japan) for analysis and the COSMOSIL 5C18-AR-300 (10 mm × 150 mm) (NACALAI TESQUE, INC.) for purification, using eluent A (H2O/0.1% trifluoroacetic acid (TFA)) and eluent B (CH3CN/0.1% TFA). Fluorescence images of living cells were taken on a BX41 upright fluorescent microscope (Olympus Corporation, Tokyo, Japan) equipped with a suitable filter set for Cy3/Cy5 dyes; it consisted of a 530–550 nm excitation filter and a 575–625 nm emission filter for the Cy3 dye, and a 608–648 nm excitation filter and a 652–732 nm emission filter for the Cy5 dye. […] Fluorescence images of animals and organs were taken with a FluorVivo Imaging System (Indec BioSystems, Santa Clara, CA, USA) equipped with a suitable filter set for a Cy5 dye; it consisted of a 600–640 nm excitation filter and a 665 nm long pass filter. […]
Cy3/Cy5-peptide A and sulfoCy3/sulfoCy5-peptide A were synthesized using commercially available Cy3/Cy5 succinimidyl ester (SE) and sulfoCy3/sulfoCy5 SE (Figure 1). […] Dye-SE and dye-peptide A were analyzed by HPLC under the same conditions; the retention times are shown in Table 1 because they are indicators of hydrophilicity/lipophilicity. […]
Figure S1. […] The compounds were analyzed by reverse-phase HPLC (eluent A: […]

Row | Compound | Retention Time [min]
1 | CCN1C(=CC=CC2=[N+](CCCCCC(=O)ON3C(=O)CCC3=O)c3ccc(S(=O)(=O)O)cc3C2(C)C)C(C)(C)c2cc(S(=O)(=O)[O-])ccc21 [sulfoCy3-SE] | 7.3
2 | CCN1C(=CC=CC=CC2=[N+](CCCCCC(=O)ON3C(=O)CCC3=O)c3ccc(S(=O)(=O)O)cc3C2(C)C)C(C)(C)c2cc(S(=O)(=O)[O-])ccc21 [sulfoCy5-SE] | 9.3
3 | Cy5 succinimidyl ester [Cy5-SE] | 22.6
